Measured values taken from the supplement of paper PMC10307832.

Columns and labels:
Assay in all cases: relative viability (nuclei count vs DMSO), 5 days (fraction); higher = more cells survive
HCC-15 = test system: HCC-15
Method in brief: (§1)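 Lung cancer cell lines were pin-tool dosed in 1536-well plates on the day after seeding, with either a lone drug or a fixed anchor-drug dose plus five library-drug doses (not always all listed) in √10 steps. Nuclei were counted on 4× images after 5 days. Relative viability is the ratio of treated-well to vehicle-well nuclei counts, with each value a median of duplicate plates.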

HCC-366 = test system: HCC-366
Method in brief: as §1

NCI-H2126 = test system: NCI-H2126
Method in brief: as §1

A-427 = test system: A-427
Method in brief: as §1

NCI-H1734 = test system: NCI-H1734
Method in brief: as §1

NCI-H2023 = test system: NCI-H2023
Method in brief: as §1

NCI-H2009 = test system: NCI-H2009
Method in brief: as §1

NCI-H1650 = test system: NCI-H1650
Method in brief: as §1

SW 1573 = test system: SW 1573
Method in brief: as §1

LOU-NH91 = test system: LOU-NH91
Method in brief: as §1

NCI-H441 = test system: NCI-H441
Method in brief: as §1

HCC-44 = test system: HCC-44
Method in brief: as §1

NCI-H650 = test system: NCI-H650
Method in brief: as §1

RERF-LC-KJ = test system: RERF-LC-KJ
Method in brief: as §1

NCI-H460 = test system: NCI-H460
Method in brief: as §1

HARA = test system: HARA
Method in brief: as §1

ChaGo-K-1 = test system: ChaGo-K-1
Method in brief: as §1

HCC-78 = test system: HCC-78
Method in brief: as §1

COR-L23 = test system: COR-L23
Method in brief: as §1

LCLC-97TM1 = test system: LCLC-97TM1
Method in brief: as §1

LCLC-103H = test system: LCLC-103H
Method in brief: as §1

NCI-H1993 = test system: NCI-H1993
Method in brief: as §1

201T = test system: 201T
Method in brief: as §1

Q: With `Cc1cnc(-c2cnc(NCCNc3ccc(C#N)cn3)nc2-c2ccc(Cl)cc2Cl)[nH]1` + COc1cccc2cc(-c3nc([C@H]4CC[C@H](C(=O)O)CC4)n4ncnc(N)c34)[nH]c12 [OSI-027] (partner 0.5 µM) as the molecule, how does the relative viability (HCC-15; first compound 0.08 µM) read?
A: Its relative viability is 0.707.

Q: And the relative viability (HCC-15; first compound 0.253 µM)?
A: The relative viability was 0.665.

Q: What about the relative viability (HCC-15; first compound 0.8 µM) of the same molecule?
A: Its relative viability is 0.512.

Q: What about the relative viability (HCC-15; first compound 2.53 µM) of the same molecule?
A: Its relative viability is 0.786.

Q: What about the relative viability (HCC-366; first compound 0.08 µM) of the same molecule?
A: Its relative viability is 1.01.

Q: And the relative viability (HCC-366; first compound 0.253 µM)?
A: Its relative viability is 0.489.

Q: What about the relative viability (HCC-366; first compound 0.8 µM) of the same molecule?
A: The relative viability was 0.558.

Q: And the relative viability (HCC-366; first compound 2.53 µM)?
A: Its relative viability is 0.695.

Q: What about the relative viability (NCI-H2126; first compound 0.08 µM) of the same molecule?
A: The relative viability was 0.704.

Q: What about the relative viability (NCI-H2126; first compound 0.253 µM) of the same molecule?
A: The relative viability was 0.622.

Q: And the relative viability (NCI-H2126; first compound 0.8 µM)?
A: Its relative viability is 0.64.

Q: And the relative viability (NCI-H2126; first compound 2.53 µM)?
A: Its relative viability is 0.776.

Q: What about the relative viability (A-427; first compound 0.08 µM) of the same molecule?
A: The relative viability was 0.547.

Q: What about the relative viability (A-427; first compound 0.253 µM) of the same molecule?
A: The relative viability was 0.41.

Q: What about the relative viability (A-427; first compound 0.8 µM) of the same molecule?
A: Its relative viability is 0.608.

Q: And the relative viability (A-427; first compound 2.53 µM)?
A: The relative viability was 0.653.

Q: What about the relative viability (NCI-H1734; first compound 0.08 µM) of the same molecule?
A: Its relative viability is 0.66.

Q: What about the relative viability (NCI-H1734; first compound 0.253 µM) of the same molecule?
A: The relative viability was 0.547.

Q: What about the relative viability (NCI-H1734; first compound 0.8 µM) of the same molecule?
A: The relative viability was 0.597.

Q: And the relative viability (NCI-H1734; first compound 2.53 µM)?
A: The relative viability was 0.616.

Q: What about the relative viability (NCI-H2023; first compound 0.08 µM) of the same molecule?
A: The relative viability was 0.565.

Q: And the relative viability (NCI-H2023; first compound 0.253 µM)?
A: Its relative viability is 0.395.

Q: And the relative viability (NCI-H2023; first compound 0.8 µM)?
A: Its relative viability is 0.431.

Q: And the relative viability (NCI-H2023; first compound 2.53 µM)?
A: Its relative viability is 0.715.

Q: What about the relative viability (NCI-H2009; first compound 0.08 µM) of the same molecule?
A: The relative viability was 0.729.

Q: And the relative viability (NCI-H2009; first compound 0.253 µM)?
A: The relative viability was 0.597.

Q: And the relative viability (NCI-H2009; first compound 0.8 µM)?
A: The relative viability was 0.609.

Q: What about the relative viability (NCI-H2009; first compound 2.53 µM) of the same molecule?
A: The relative viability was 0.496.

Q: And the relative viability (NCI-H1650; first compound 0.08 µM)?
A: The relative viability was 0.75.

Q: What about the relative viability (NCI-H1650; first compound 0.253 µM) of the same molecule?
A: Its relative viability is 0.61.

Q: And the relative viability (NCI-H1650; first compound 0.8 µM)?
A: The relative viability was 0.554.

Q: What about the relative viability (NCI-H1650; first compound 2.53 µM) of the same molecule?
A: The relative viability was 0.56.

Q: And the relative viability (SW 1573; first compound 0.08 µM)?
A: Its relative viability is 0.538.

Q: What about the relative viability (SW 1573; first compound 0.253 µM) of the same molecule?
A: The relative viability was 0.483.

Q: And the relative viability (SW 1573; first compound 0.8 µM)?
A: The relative viability was 0.33.

Q: And the relative viability (SW 1573; first compound 2.53 µM)?
A: Its relative viability is 0.363.

Q: And the relative viability (LOU-NH91; first compound 0.08 µM)?
A: The relative viability was 0.732.

Q: And the relative viability (LOU-NH91; first compound 0.253 µM)?
A: The relative viability was 0.709.

Q: And the relative viability (LOU-NH91; first compound 0.8 µM)?
A: Its relative viability is 0.751.

Q: What about the relative viability (LOU-NH91; first compound 2.53 µM) of the same molecule?
A: Its relative viability is 0.673.

Q: What about the relative viability (NCI-H441; first compound 0.08 µM) of the same molecule?
A: Its relative viability is 0.739.

Q: What about the relative viability (NCI-H441; first compound 0.253 µM) of the same molecule?
A: The relative viability was 0.664.

Q: And the relative viability (NCI-H441; first compound 0.8 µM)?
A: Its relative viability is 0.453.

Q: And the relative viability (NCI-H441; first compound 2.53 µM)?
A: Its relative viability is 0.459.

Q: And the relative viability (HCC-44; first compound 0.08 µM)?
A: Its relative viability is 0.555.

Q: And the relative viability (HCC-44; first compound 0.253 µM)?
A: Its relative viability is 0.483.

Q: What about the relative viability (HCC-44; first compound 0.8 µM) of the same molecule?
A: The relative viability was 0.485.

Q: What about the relative viability (HCC-44; first compound 2.53 µM) of the same molecule?
A: Its relative viability is 0.932.

Q: What about the relative viability (NCI-H650; first compound 0.08 µM) of the same molecule?
A: The relative viability was 0.571.

Q: What about the relative viability (NCI-H650; first compound 0.253 µM) of the same molecule?
A: Its relative viability is 0.517.

Q: What about the relative viability (NCI-H650; first compound 0.8 µM) of the same molecule?
A: Its relative viability is 0.582.

Q: And the relative viability (NCI-H650; first compound 2.53 µM)?
A: Its relative viability is 0.486.

Q: What about the relative viability (RERF-LC-KJ; first compound 0.08 µM) of the same molecule?
A: Its relative viability is 0.672.

Q: And the relative viability (RERF-LC-KJ; first compound 0.253 µM)?
A: Its relative viability is 0.591.

Q: What about the relative viability (RERF-LC-KJ; first compound 0.8 µM) of the same molecule?
A: The relative viability was 0.454.

Q: What about the relative viability (RERF-LC-KJ; first compound 2.53 µM) of the same molecule?
A: The relative viability was 0.697.

Q: What about the relative viability (NCI-H460; first compound 0.08 µM) of the same molecule?
A: The relative viability was 0.749.

Q: And the relative viability (NCI-H460; first compound 0.253 µM)?
A: Its relative viability is 0.582.

Q: And the relative viability (NCI-H460; first compound 0.8 µM)?
A: The relative viability was 0.675.

Q: And the relative viability (NCI-H460; first compound 2.53 µM)?
A: Its relative viability is 0.669.

Q: And the relative viability (HARA; first compound 0.08 µM)?
A: The relative viability was 0.554.

Q: And the relative viability (HARA; first compound 0.253 µM)?
A: Its relative viability is 0.376.

Q: And the relative viability (HARA; first compound 0.8 µM)?
A: The relative viability was 0.469.

Q: What about the relative viability (HARA; first compound 2.53 µM) of the same molecule?
A: Its relative viability is 0.562.

Q: And the relative viability (ChaGo-K-1; first compound 0.08 µM)?
A: The relative viability was 0.608.

Q: What about the relative viability (ChaGo-K-1; first compound 0.253 µM) of the same molecule?
A: Its relative viability is 0.442.

Q: What about the relative viability (ChaGo-K-1; first compound 0.8 µM) of the same molecule?
A: The relative viability was 0.623.

Q: And the relative viability (ChaGo-K-1; first compound 2.53 µM)?
A: Its relative viability is 0.592.

Q: What about the relative viability (HCC-78; first compound 0.08 µM) of the same molecule?
A: The relative viability was 0.41.

Q: And the relative viability (HCC-78; first compound 0.253 µM)?
A: The relative viability was 0.391.

Q: And the relative viability (HCC-78; first compound 0.8 µM)?
A: The relative viability was 0.366.

Q: And the relative viability (HCC-78; first compound 2.53 µM)?
A: The relative viability was 0.438.

Q: What about the relative viability (COR-L23; first compound 0.08 µM) of the same molecule?
A: The relative viability was 0.805.

Q: And the relative viability (COR-L23; first compound 0.253 µM)?
A: The relative viability was 0.762.

Q: What about the relative viability (COR-L23; first compound 0.8 µM) of the same molecule?
A: Its relative viability is 0.885.

Q: What about the relative viability (COR-L23; first compound 2.53 µM) of the same molecule?
A: The relative viability was 0.906.

Q: And the relative viability (LCLC-97TM1; first compound 0.08 µM)?
A: The relative viability was 0.648.

Q: And the relative viability (LCLC-97TM1; first compound 0.8 µM)?
A: The relative viability was 0.646.

Q: What about the relative viability (LCLC-97TM1; first compound 2.53 µM) of the same molecule?
A: The relative viability was 0.688.

Q: And the relative viability (LCLC-103H; first compound 0.08 µM)?
A: The relative viability was 0.46.

Q: What about the relative viability (LCLC-103H; first compound 0.253 µM) of the same molecule?
A: The relative viability was 0.413.

Q: What about the relative viability (LCLC-103H; first compound 0.8 µM) of the same molecule?
A: The relative viability was 0.428.

Q: And the relative viability (LCLC-103H; first compound 2.53 µM)?
A: The relative viability was 0.473.

Q: What about the relative viability (NCI-H1993; first compound 0.08 µM) of the same molecule?
A: The relative viability was 0.568.

Q: And the relative viability (NCI-H1993; first compound 0.253 µM)?
A: The relative viability was 0.49.

Q: What about the relative viability (NCI-H1993; first compound 0.8 µM) of the same molecule?
A: The relative viability was 0.536.

Q: What about the relative viability (NCI-H1993; first compound 2.53 µM) of the same molecule?
A: Its relative viability is 0.577.

Q: What about the relative viability (201T; first compound 0.08 µM) of the same molecule?
A: Its relative viability is 0.562.

Q: And the relative viability (201T; first compound 0.8 µM)?
A: Its relative viability is 0.819.

Q: What about the relative viability (201T; first compound 2.53 µM) of the same molecule?
A: The relative viability was 0.768.
